“Also recorded” adds a separate entry of the source.
Experiments:
[1] = system: asxl1-mutant clones; assay: asxl1-mutant clonal dynamics in peripheral blood of mosaic asxl1-mutant zebrafish (VAF by sequencing); assay type: in vivo
Experimental: (§1) Zebrafish were generated with mosaic mutations in asxl1 using the TWISTR method (Avagyan et a1 Science 2021, PMID 34735227). Briefly, they were injected with guide-RNAs targeting asxl1 gene with Cas9 mRNA into 1-cell embryos of zebrafish, and grown to adulthood. At 3 months retroortibital bleeding was performed on the adult zebrafish and measure the size of the mutant clones in the peripheral blood by sequencing the genomic DNA at the targeting locus of asxl1. Zebrafish with at least 1 mutant allele of 5% of greater allele size were chosen for the cohorts, randomly assigned to be treated with either DMSO or NR4A1 inhibitor (DIM-C). The dose of DIM-C was determined in a previously conducted pilot experiment. Zebrafish with mosaic mutations in asxl1 are treated with either DMSO or an NR4A1 inhibitor (DIM-C) and analyzed over a three-month period. Peripheral blood was collected every month to determine the size of the mutant clones over time. […] RO=retro-orbital bleed, RO1=first RO, pre-treatment, RO2 through RO4=monthly RO bleeds following treatment.
Clonal hematopoiesis. Zebrafish were generated with mosaic mutations in asxl1 using the TWISTR method (Avagyan et a1 Science 2021, PMID 34735227). Briefly, they were injected with guide-RNAs targeting asxl1 gene with Cas9 mRNA into 1-cell embryos of zebrafish, and grown to adulthood. At 3 months retroortibital bleeding was performed on the adult zebrafish and the size of the mutant clones in the peripheral blood was measured by sequencing the genomic DNA at the targeting locus of asxl1. Zebrafish with at least 1 mutant allele of 5% of greater allele size were chosen for the cohorts, randomly assigned to be treated with either DMSO or NR4A1 inhibitor (DIM-C). Zebrafish with mosaic mutations in asxl1 were treated with either DMSO or an NR4A1 inhibitor (DIM-C) and analyzed over a three-month period. Peripheral blood was collected every month to determine the size of the mutant clones over time.
It was previously shown by early genetic targeting nr4a1 during development prevented clonal growth of mutant cells. Next, the hypothesis that pharmacologic inhibition of nr4a1 would halt or reduce mutant clonal growth over time was tested (FIG. 1). To test this hypothesis, a cohort of asxl1 mutant zebrafish were generated and screened for the presence of asxl1 mutant clone at at least 5% VAF in peripheral blood. The positively screened mutant fish were then treated either with DMSO or minimally toxic dose of DIM-c (Tocris compound) at 9.5 uM concentration overnight, between 14-16 hours long, 5 days of the week for 6 months. Peripheral blood from both groups was collected by retroorbital bleeding every month for measurement of the mutant clones in the blood by next generation sequencing (FIG. 2). N=are the numbers of fish at the initiation of treatment. A more detailed experimental schema with exact dates in order to calculate exact ages of the fish or post treatment timepoints is shown in FIG. 10.

[2] = system: zebrafish; assay: Tolerability and survival of treated asxl1-mutant zebrafish; assay type: in vivo; settings: over the three-month treatment period
Experimental: as §1
It was previously shown by early genetic targeting nr4a1 during development prevented clonal growth of mutant cells. […]
FIG. 11 examines the survival curve of the fish in two cohorts. […] Additionally, marrow cellular composition was analyzed at 8 months post treatment by flow cytometry.

[3] = system: marrow myelomonocytes, lymphocytes and progenitor/precursors; assay: Marrow cellular composition by flow cytometry; assay type: in vivo, zebrafish; settings: 8 months post treatment
Experimental: FIG. 11 examines the survival curve of the fish in two cohorts. An event was finding the fish dead or moribund after overnight treatment; no fish died during the day or off treatment days or as a consequence of retroorbital bleeding. No statistical difference was found with p values >0.05 by two different tests between the groups. 17 DMSO and 13 DIMC fish were left for final analysis. Additionally, marrow cellular composition was analyzed at 8 months post treatment by flow cytometry.

With Oc1ccc(C(c2c[nH]c3ccccc23)c2c[nH]c3ccccc23)cc1 [DIM-C, 1,1-bis(3′-indolyl)-1-(p-hydroxyphenyl)methane] the “change in asxl1 frameshift indel containing clone size compared to 0 (Wilcoxon rank test)” value ([1]; DIM-C treated zebrafish, three-month period, null hypothesis: no change) was “no significant change”, the “change of asxl1-mutant clones with non-frameshift indels over time” value ([1]; DIM-C treatment, three-month period, peripheral blood) was “similarly unchanged over time; also recorded: did not change significantly over time” and the “expansion of asxl1-mutant clones with frameshift indels (VAF over time)” value ([1]; DIM-C vs DMSO, three-month period, monthly retro-orbital bleeds, peripheral blood) was “less pronounced and plateaus by 3 months; also recorded: less expansion of asxl1-mutant clones”. The “asxl1-mutant clonal expansion, clones with frameshift and non-frameshift indels, all zebrafish” value ([1]; DIM-C, all zebrafish (n=12), three-month period) was “significantly abated asxl1-mutant clonal expansion”, the “change in size of the largest clone over treatment” value ([1]; DIMC treatment arm, compared to 0 (no change over time), one sample t and Wilcoxon test) was “had not changed significantly” and the “percent change of clone size (VAF at RO4 compared to VAF at RO1), frameshift-indel clones, compared to DMSO” value ([1]; three-month period, clones with VAF of 5% or greater in at least 1 time point) was “significantly less expansion”. The “physical abnormalities in treated zebrafish” value [2] was “No physical abnormalities were observed” and the “marrow cellular composition, difference between treatment groups” value [3] was “no difference between the treatment groups”.

Source: patent publication US20250188169A1, “METHOD FOR TREATING CLONAL HEM[…] DISORDERS” (THE CHILDREN'S MEDICAL CENTER CORPORATION, priority 2022, published 2025)
